# Values quoted from earlier work in paper PMC3320885 (PLoS ONE, 2012).
# Tests used:
# [1] = test system: BCR-Abl V299L mutant
# [2] = test system: BCR-Abl Y253F mutant
# [3] = test system: BCR-Abl T315I mutant
# [4] = test system: receptor tyrosine kinase PDGFR; parameters: method as in PMID 12543790, PMID 17114238
# [5] = test system: receptor tyrosine kinase Kit; parameters: method as in PMID 12543790, PMID 17114238
# [6] = test system: BCR-Abl Q252H mutant
compound,measurement,setting,value
COc1cc(Nc2c(C#N)cnc3cc(OCCCN4CCN(C)CC4)c(OC)cc23)c(Cl)cc1Cl [bosutinib],effect of V299L mutation,[1],confer resistance
same,effect of Y253F mutation on inhibition,[2],not affected
same,effect of T315I mutation,[3],confer resistance
same,activity against PDGFR,[4],devoid of activity
same,activity against Kit,[5],devoid of activity
same,effect of Q252H mutation on inhibition,[6],not affected
